Data from article PMC10783034, “Pharmacokinetic and pharmacodynamic evaluation of the atypical tetracyclines chelocardin and amidochelocardin in murine infection models” (Microbiology Spectrum, 2023).
≈ marks a conversion by molar mass, not a printed value.

Assays:
E. coli C175-94 = assay: Ascending urinary tract infection model in OF-1 mice; assay type: in vivo; conditions: for bacterial burden in urine: CHD/CDCHD 12 mg/kg SC BID on day 1 and 2 post-inoculation; for bacterial burden in urine / bacterial burden in kidneys / bacterial burden in the bladder: day 3, vs vehicle; for animals with sterile kidneys / bacterial burden in kidneys / bacterial burden in the bladder: CHD/CDCHD 12 mg/kg SC BID, gentamicin 100 mg/kg SC BID; for animals with sterile kidneys: control animals 23.8%
Procedure: The model was conducted as described previously ([27], [60]). In brief, n = 21 animals were used per group in the main study, and n = 3 animals per group in satellite groups for histopathological analysis. Three days before the start of the study and during the study, mice had free access to 5% glucose as drinking water. Fresh overnight colonies of E. coli from a 5% horse blood agar plate were suspended in PBS pH 7.4 to approximately 10^9 cfu/mL. Approximately 1 hour before inoculation, mice were treated orally with […] Nurofen (20 mg ibuprofen/mL corresponding to approximately 30 mg/kg) as a pain relief. Urine was removed from the bladder by gently pressing the abdomen and mice were anaesthetized with 0.15 mL Zoletil mix SC. Thereafter, the mice were inoculated. A syringe with a catheter, containing the bacterial suspension was inserted via the urethra into the bladder and 50 µL of the inoculum was slowly injected into the bladder. Hereafter, the mouse was placed in the cage and kept in a warming cabinet until fully awake (approximately 4 hours). The mice were treated with CHD (12 mg/kg SC BID), CDCHD (12 mg/kg SC BID), gentamicin (100 mg/kg SC BID), or vehicle BID (2nd dose was administered approximately 6 hours after the 1st dose on each day) on day 1, that is, first dose around 24 hours post-infection, and day 2 post-inoculation. The mice were observed during the study and scored based on their behavior and clinical signs. Clinical scoring comprised assessment of piloerection in the skin, activity (movement, curiosity), and appearance of eyes. The scoring range comprised 0–4. In our model, a maximum score of 1; thus, only mild discomfort was observed. On day 3 post-inoculation and after sampling urine, mice were euthanized by cervical dislocation, and bladder and kidneys were removed from 21 mice in each treatment group aseptically for cfu determination. The bladder and kidneys were stored at −80°C and later homogenized in 0.5 or 1 mL saline, respectively. Colony counts of urine were determined immediately. From the three additional mice in each treatment group (satellite groups), urine and plasma were sampled and frozen at −80°C, and bladders, kidneys, and liver were collected in 4% buffered formalin. Cfu was determined in urine samples within 2–3 hours after sampling. Frozen organs were thawed and homogenized with steel beads using a tissue lyser. All samples, urine, kidney, and bladder, were 10-fold diluted in saline and 20 µL spots were applied on blue agar plates in duplicates. In addition, undiluted samples of urine (2–100 μL depending on the available amount of urine) were spread on a separate agar plate to determine the colony counts at the lowest possible detection level. All agar plates were incubated for 18–22 hours at 35°C in ambient air.
(§1) For the neutropenic thigh infection model with E. coli ATCC 25922, the thighs were regarded as two independent infection sites throughout the experiment. For statistical analysis, individual thighs (left and right) were treated as separate samples although these were not completely independent values. For the neutropenic thigh infection model with K. pneumoniae ATCC 43816, the individual thighs (left and right) were treated as one sample. For the efficacy models, the non-parametric Kruskal-Wallis test was used with GraphPad Prism 9.4.1. For the ascending urinary tract infection model, an ordinary one-way ANOVA with Dunnett’s multiple comparison test was used with GraphPad Prism 9.4.1.

K. pneumoniae strains = system: K. pneumoniae strains; parameters: method as in PMID 32962088; conditions: selection of different K. pneumoniae strains; cited from earlier work
E. coli ATCC 25922 [1] = system: E. coli ATCC 25922; parameters: method as in PMID 32962088; conditions: cited from earlier work
K. pneumoniae ATCC 43816 = assay: Neutropenic thigh infection model in CD-1 mice; assay type: in vivo
Procedure: (§2) The inoculum for K. pneumoniae ATCC 43816 was prepared freshly as described previously to yield 1 × 10^4 cfu/mL ([56]). The inoculum of the E. coli ATCC 25922 was diluted from a frozen stock to 1.4 × 10^6 cfu/ml. N = 6 animals per group were used for both tested strains. N = 4 mice were used in the pre-treatment group in the neutropenic thigh infection model with E. coli ATCC 25922. Mice were rendered neutropenic by administration of 150 mg/kg and 100 mg/kg cyclophosphamide intraperitoneally on days −4 and −1, respectively. On the day of infection (day 0), mice received 30 µL of the inoculum of K. pneumoniae ATCC 43816 into each lateral thigh under isoflurane anesthesia, corresponding to 6 × 10^2 cfu/mouse. In the model with E. coli, mice received 50 µL of the inoculum of E. coli into each lateral thigh under isoflurane anesthesia, corresponding to 1.4 × 10^5 cfu/mouse. Whilst still under anesthesia, mice were administered a dose of Buprenorphine (0.03 mg/kg) subcutaneously for pain relief. 24 hours after infection, mice were euthanized by slowly introducing CO2 and cardiac puncture to remove blood from the heart immediately after death. Kidneys and thighs were aseptically removed. 24 hours after infection, the clinical score of every individual animal was assessed. Clinical scoring comprises the assessment of different parameters such as spontaneous behavior, posture, appearance, and provoked behavior. Each parameter was assessed with a score of 0 to 3 (ascending severity from 0 to 3). The humane endpoint was reached when the clinical score of a single parameter was 3 or if the total clinical score was higher than 8. Whole blood was collected into Eppendorf tubes coated with 0.5 M EDTA. Organs were homogenized in 0.9% NaCl solution. Organs and blood were plated onto agar plates in duplicates in serial dilutions and incubated at 37°C for 24 hours. 25 µL per dilution of the homogenized organ was spotted onto agar plates. In addition, 1 mL of homogenized organ is streaked onto an agar plate in technical duplicates. If no single colony is observed then, this would result in 0 cfu/mL. Thus, the threshold of detection is 0 log10 cfu/g. The groups used in the different neutropenic thigh infection models are found in Tables S4 through S7. In brief, levofloxacin with 3.3 mg/kg TID IP was used as a positive control antibiotic for the K. pneumoniae model, whereas ciprofloxacin with 20 mg/kg BID IV was used for the E. coli model, respectively. The rationale for TID dosing was based on the PK/PD index of fAUC/MIC for fluoroquinolones ([57] [–] [59]). […] Moreover, CHD and CDCHD were administered at 10 mg/kg SC QID (t = 1,3,5,7 hours), 15 mg/kg SC TID (t = 1,4,7 hours), and 50 mg/kg SC QD (t = 1 hour) (Tables S5 and S6). In the E. coli neutropenic thigh infection model, CHD and CDCHD, respectively, were administered at 50 mg/kg IV QD (t = 1 hour) and 15 mg/kg IV BID (t = 1 and 6 hours) (Table S7).
as §1

E. coli ATCC 25922 [2] = assay: Neutropenic thigh infection model in CD-1 mice; assay type: in vivo; conditions: for bacterial burden in the thigh relative to stasis (pre-treatment group): 50 mg/kg IV QD; for tolerability: doses up to 50 mg/kg IV in the neutropenic thigh infection model
Procedure: as §2, §1

[3] = 24 hours after infection, CHD/CDCHD 10 mg/kg SC QD or BID, levofloxacin 3.3 mg/kg IP TID, vs vehicle
[4] = higher-dose studies: 10 mg/kg SC QID, 15 mg/kg SC TID, 50 mg/kg SC QD, levofloxacin 3.3 mg/kg IP TID

Row | SMILES | bacterial burden in urine (E. coli C175-94) | animals with sterile kidneys (E. coli C175-94) [%] | bacterial burden in kidneys (E. coli C175-94) | bacterial burden in the bladder (E. coli C175-94) | MIC (K. pneumoniae strains) | MIC (E. coli ATCC 25922 [1]) [µg/mL] | bacterial burden in blood (K. pneumoniae ATCC 43816; [3]) | bacterial burden in the kidney (K. pneumoniae ATCC 43816; [4]) | bacterial burden in the thigh relative to stasis (pre-treatment group) (E. coli ATCC 25922 [2]) | tolerability (E. coli ATCC 25922 [2]) | also measured
1 | Cc1ccc2c(C)c3c(c(O)c2c1O)C(=O)C1(O)C(=O)C(C(N)=O)=C(O)C(N)C1C3 (centres unmarked) [CDCHD, 2-carboxamido-2-deacetyl-chelocardin] | reduced bacterial burden in urine significantly | 61.9 | strong and significant reduction | significant reduction compared to vehicle control | ~ 4 µg/mL | 2 (≈ 4.85 µM) | The same was found in blood | reduced bacterial burden in the kidney to apparent sterilization | did not reduce bacterial load back to stasis | well tolerated | bacterial burden in the kidney (K. pneumoniae ATCC 43816; 10 mg/kg SC BID, vs vehicle control, similar to levofloxacin, not statistically significant): a reduction of bacterial burden was observed in the kidney; bacterial burden in blood (K. pneumoniae ATCC 43816; 10 mg/kg SC QID, 15 mg/kg SC TID, 50 mg/kg SC QD (all three groups)): a reduction of bacterial burden was observed; bacterial burden in the thigh (K. pneumoniae ATCC 43816; 50 mg/kg SC QD): a statistically significant reduction of bacterial burden in the thigh was observed; reduction of bacterial burden in the thigh (K. pneumoniae ATCC 43816; 50 mg/kg SC QD): approximately one; bacterial burden in kidney (E. coli ATCC 25922 [2]; both IV groups (15 mg/kg IV BID and 50 mg/kg IV QD)): pronounced reduction of bacterial burden
2 | CC(=O)C1=C(O)[C@H](N)[C@@H]2Cc3c(c(O)c4c(O)c(C)ccc4c3C)C(=O)[C@]2(O)C1=O [CHD, chelocardin] | reduced bacterial burden in urine significantly | 38.1 | slight, non-significant effect | significant reduction compared to vehicle control | ~ 4 µg/mL | 2 (≈ 4.86 µM) | The same was found in blood | no statistically significant effect was observed | reduction of bacterial burden to levels below stasis | well tolerated | bacterial burden in the thigh (K. pneumoniae ATCC 43816; 10 mg/kg SC QID, 15 mg/kg SC TID, 50 mg/kg SC QD (all three dose levels)): no effect was observed in the thigh; bacterial burden in the kidney (K. pneumoniae ATCC 43816; 50 mg/kg SC QD): a slight reduction of bacterial burden; bacterial burden in blood (K. pneumoniae ATCC 43816; 50 mg/kg SC QD, similar range as levofloxacin, statistical significance missed): the bacterial burden was reduced; bacterial burden in kidney (E. coli ATCC 25922 [2]; 15 mg/kg IV BID): moderate reduction; bacterial burden in the thigh (E. coli ATCC 25922 [2]; 15 mg/kg IV BID): reduced bacterial burden in the thigh; kill in the thigh compared to the pre-treatment group (E. coli ATCC 25922 [2]; 50 mg/kg IV): ~1 log10-unit; reduction in the thigh compared to the vehicle (E. coli ATCC 25922 [2]; 50 mg/kg IV): 5 log10-unit
